In the supplement of paper PMC10307832:

Experiments:
Test in all cases: relative viability (nuclei count vs DMSO), 5 days (fraction); higher = more cells survive
LC-2-ad = system: LC-2-ad
Summary of the method: (§1)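 Dosing by pin tool came one day after lung cancer cell lines were seeded in 1536-well plates, using either one drug or a fixed anchor-drug dose plus five library-drug doses (not always all listed) in √10 steps. After 5 days, nuclei were counted on 4× images. Relative viability is treated-well nuclei count divided by vehicle-well nuclei count, and values are medians of duplicate plates.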

ChaGo-K-1 = system: ChaGo-K-1
Summary of the method: as §1

NCI-H2228 = system: NCI-H2228
Summary of the method: as §1

HCC-78 = system: HCC-78
Summary of the method: as §1

NCI-H1944 = system: NCI-H1944
Summary of the method: as §1

NCI-H2087 = system: NCI-H2087
Summary of the method: as §1

LOU-NH91 = system: LOU-NH91
Summary of the method: as §1

PC-3 [JPC-3] = system: PC-3 [JPC-3]
Summary of the method: as §1

NCI-H3122 = system: NCI-H3122
Summary of the method: as §1

NCI-H2170 = system: NCI-H2170
Summary of the method: as §1

CAL-12T = system: CAL-12T
Summary of the method: as §1

NCI-H1793 = system: NCI-H1793
Summary of the method: as §1

RERF-LC-KJ = system: RERF-LC-KJ
Summary of the method: as §1

HCC-366 = system: HCC-366
Summary of the method: as §1

LU99A = system: LU99A
Summary of the method: as §1

NCI-H2405 = system: NCI-H2405
Summary of the method: as §1

NCI-H1755 = system: NCI-H1755
Summary of the method: as §1

NCI-H460 = system: NCI-H460
Summary of the method: as §1

UMC-11 = system: UMC-11
Summary of the method: as §1

NCI-H1395 = system: NCI-H1395
Summary of the method: as §1

NCI-H1651 = system: NCI-H1651
Summary of the method: as §1

Nc1ccn([C@@H]2O[C@H](CO)[C@@H](O)[C@@H]2O)c(=O)n1 [Cytarabine] + CC(=O)Nc1cccc(-n2c(=O)n(C3CC3)c(=O)c3c(Nc4ccc(I)cc4F)n(C)c(=O)c(C)c32)c1 [Trametinib] (partner 0.02 µM)
relative viability (LC-2-ad; first compound 0.005 µM): 0.896 | relative viability (LC-2-ad; first compound 0.01581 µM): 0.908 | relative viability (LC-2-ad; first compound 0.05 µM): 0.893 | relative viability (LC-2-ad; first compound 0.1581 µM): 0.708 | relative viability (LC-2-ad; first compound 0.5 µM): 0.47 | relative viability (ChaGo-K-1; first compound 0.005 µM): 0.688 | relative viability (ChaGo-K-1; first compound 0.01581 µM): 0.625 | relative viability (ChaGo-K-1; first compound 0.05 µM): 0.504 | relative viability (ChaGo-K-1; first compound 0.1581 µM): 0.308 | relative viability (ChaGo-K-1; first compound 0.5 µM): 0.247 | relative viability (NCI-H2228; first compound 0.005 µM): 0.288 | relative viability (NCI-H2228; first compound 0.01581 µM): 0.171 | relative viability (NCI-H2228; first compound 0.05 µM): 0.158 | relative viability (NCI-H2228; first compound 0.1581 µM): 0.127 | relative viability (NCI-H2228; first compound 0.5 µM): 0.116 | relative viability (HCC-78; first compound 0.005 µM): 1.06 | relative viability (HCC-78; first compound 0.01581 µM): 0.688 | relative viability (HCC-78; first compound 0.05 µM): 0.575 | relative viability (HCC-78; first compound 0.1581 µM): 0.478 | relative viability (HCC-78; first compound 0.5 µM): 0.37 | relative viability (NCI-H1944; first compound 0.005 µM): 0.36 | relative viability (NCI-H1944; first compound 0.01581 µM): 0.287 | relative viability (NCI-H1944; first compound 0.05 µM): 0.3 | relative viability (NCI-H1944; first compound 0.1581 µM): 0.168 | relative viability (NCI-H1944; first compound 0.5 µM): 0.169 | relative viability (NCI-H2087; first compound 0.005 µM): 0.187 | relative viability (NCI-H2087; first compound 0.01581 µM): 0.221 | relative viability (NCI-H2087; first compound 0.05 µM): 0.187 | relative viability (NCI-H2087; first compound 0.1581 µM): 0.139 | relative viability (NCI-H2087; first compound 0.5 µM): 0.126 | relative viability (LOU-NH91; first compound 0.005 µM): 0.758 | relative viability (LOU-NH91; first compound 0.01581 µM): 0.807 | relative viability (LOU-NH91; first compound 0.05 µM): 0.699 | relative viability (LOU-NH91; first compound 0.1581 µM): 0.657 | relative viability (LOU-NH91; first compound 0.5 µM): 0.644 | relative viability (PC-3 [JPC-3]; first compound 0.005 µM): 0.705 | relative viability (PC-3 [JPC-3]; first compound 0.01581 µM): 0.73 | relative viability (PC-3 [JPC-3]; first compound 0.05 µM): 0.589 | relative viability (PC-3 [JPC-3]; first compound 0.1581 µM): 0.423 | relative viability (PC-3 [JPC-3]; first compound 0.5 µM): 0.498 | relative viability (NCI-H3122; first compound 0.005 µM): 0.221 | relative viability (NCI-H3122; first compound 0.01581 µM): 0.252 | relative viability (NCI-H3122; first compound 0.05 µM): 0.187 | relative viability (NCI-H3122; first compound 0.1581 µM): 0.177 | relative viability (NCI-H3122; first compound 0.5 µM): 0.139 | relative viability (NCI-H2170; first compound 0.005 µM): 0.741 | relative viability (NCI-H2170; first compound 0.01581 µM): 0.665 | relative viability (NCI-H2170; first compound 0.05 µM): 0.581 | relative viability (NCI-H2170; first compound 0.1581 µM): 0.374 | relative viability (NCI-H2170; first compound 0.5 µM): 0.299 | relative viability (CAL-12T; first compound 0.005 µM): 0.411 | relative viability (CAL-12T; first compound 0.01581 µM): 0.318 | relative viability (CAL-12T; first compound 0.05 µM): 0.326 | relative viability (CAL-12T; first compound 0.1581 µM): 0.22 | relative viability (CAL-12T; first compound 0.5 µM): 0.22 | relative viability (NCI-H1793; first compound 0.005 µM): 0.489 | relative viability (NCI-H1793; first compound 0.01581 µM): 0.405 | relative viability (NCI-H1793; first compound 0.05 µM): 0.398 | relative viability (NCI-H1793; first compound 0.1581 µM): 0.266 | relative viability (NCI-H1793; first compound 0.5 µM): 0.258 | relative viability (RERF-LC-KJ; first compound 0.005 µM): 0.797 | relative viability (RERF-LC-KJ; first compound 0.01581 µM): 0.862 | relative viability (RERF-LC-KJ; first compound 0.05 µM): 0.716 | relative viability (RERF-LC-KJ; first compound 0.1581 µM): 0.498 | relative viability (RERF-LC-KJ; first compound 0.5 µM): 0.402 | relative viability (HCC-366; first compound 0.005 µM): 0.276 | relative viability (HCC-366; first compound 0.01581 µM): 0.33 | relative viability (HCC-366; first compound 0.05 µM): 0.178 | relative viability (HCC-366; first compound 0.1581 µM): 0.0948 | relative viability (HCC-366; first compound 0.5 µM): 0.086 | relative viability (LU99A; first compound 0.005 µM): 0.588 | relative viability (LU99A; first compound 0.01581 µM): 0.447 | relative viability (LU99A; first compound 0.05 µM): 0.497 | relative viability (LU99A; first compound 0.1581 µM): 0.549 | relative viability (LU99A; first compound 0.5 µM): 0.544 | relative viability (NCI-H2405; first compound 0.005 µM): 0.648 | relative viability (NCI-H2405; first compound 0.01581 µM): 0.53 | relative viability (NCI-H2405; first compound 0.05 µM): 0.464 | relative viability (NCI-H2405; first compound 0.1581 µM): 0.401 | relative viability (NCI-H2405; first compound 0.5 µM): 0.317 | relative viability (NCI-H1755; first compound 0.005 µM): 0.827 | relative viability (NCI-H1755; first compound 0.01581 µM): 0.76 | relative viability (NCI-H1755; first compound 0.05 µM): 0.681 | relative viability (NCI-H1755; first compound 0.1581 µM): 0.512 | relative viability (NCI-H1755; first compound 0.5 µM): 0.407 | relative viability (NCI-H460; first compound 0.005 µM): 0.13 | relative viability (NCI-H460; first compound 0.01581 µM): 0.111 | relative viability (NCI-H460; first compound 0.05 µM): 0.103 | relative viability (NCI-H460; first compound 0.1581 µM): 0.0544 | relative viability (NCI-H460; first compound 0.5 µM): 0.0417 | relative viability (UMC-11; first compound 0.005 µM): 0.487 | relative viability (UMC-11; first compound 0.01581 µM): 0.424 | relative viability (UMC-11; first compound 0.05 µM): 0.373 | relative viability (UMC-11; first compound 0.1581 µM): 0.216 | relative viability (UMC-11; first compound 0.5 µM): 0.183 | relative viability (NCI-H1395; first compound 0.005 µM): 1.06 | relative viability (NCI-H1395; first compound 0.01581 µM): 1.02 | relative viability (NCI-H1395; first compound 0.05 µM): 0.591 | relative viability (NCI-H1395; first compound 0.1581 µM): 0.524 | relative viability (NCI-H1395; first compound 0.5 µM): 0.436 | relative viability (NCI-H1651; first compound 0.005 µM): 0.846 | relative viability (NCI-H1651; first compound 0.01581 µM): 0.858 | relative viability (NCI-H1651; first compound 0.05 µM): 0.818 | relative viability (NCI-H1651; first compound 0.1581 µM): 0.591 | relative viability (NCI-H1651; first compound 0.5 µM): 0.384
